The source of these data is patent US20050282743A1, “Molecular interactions in cells” (Arbor Vita Corporation, priority 2001, published 2005).

Assay [1] addresses PDZ-domain polypeptide (GST/PDZ fusion protein). The experiment in a line: Apparent affinity (Kd) by titration of PL peptide in the G assay. The assay is classed as binding. The following applies: read-out: Peptide Optimal Conc (Kd by titration of the PL peptide). In short, it runs like this: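 A fixed concentration of GST/PDZ fusion protein, 5 ug/ml by default, was mixed in solution with increasing labeled PL peptide (e.g. 0.1 uM-1 mM). Reaction times ranged from 10 minutes to 2 days at 4-37° C. Complexes were separated from free peptide and detected via the label as in the G assay, apparent affinity coming from the saturating concentration.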

For assay [2], the target named is T1, PDZ protein (GST-PDZ fusion) (Homo sapiens, UniProt Q02410).
T1 construct: made in house; host or cells: E. coli (DH5alpha, BL21 or JM109)
T1 sequence (Q02410 1-837): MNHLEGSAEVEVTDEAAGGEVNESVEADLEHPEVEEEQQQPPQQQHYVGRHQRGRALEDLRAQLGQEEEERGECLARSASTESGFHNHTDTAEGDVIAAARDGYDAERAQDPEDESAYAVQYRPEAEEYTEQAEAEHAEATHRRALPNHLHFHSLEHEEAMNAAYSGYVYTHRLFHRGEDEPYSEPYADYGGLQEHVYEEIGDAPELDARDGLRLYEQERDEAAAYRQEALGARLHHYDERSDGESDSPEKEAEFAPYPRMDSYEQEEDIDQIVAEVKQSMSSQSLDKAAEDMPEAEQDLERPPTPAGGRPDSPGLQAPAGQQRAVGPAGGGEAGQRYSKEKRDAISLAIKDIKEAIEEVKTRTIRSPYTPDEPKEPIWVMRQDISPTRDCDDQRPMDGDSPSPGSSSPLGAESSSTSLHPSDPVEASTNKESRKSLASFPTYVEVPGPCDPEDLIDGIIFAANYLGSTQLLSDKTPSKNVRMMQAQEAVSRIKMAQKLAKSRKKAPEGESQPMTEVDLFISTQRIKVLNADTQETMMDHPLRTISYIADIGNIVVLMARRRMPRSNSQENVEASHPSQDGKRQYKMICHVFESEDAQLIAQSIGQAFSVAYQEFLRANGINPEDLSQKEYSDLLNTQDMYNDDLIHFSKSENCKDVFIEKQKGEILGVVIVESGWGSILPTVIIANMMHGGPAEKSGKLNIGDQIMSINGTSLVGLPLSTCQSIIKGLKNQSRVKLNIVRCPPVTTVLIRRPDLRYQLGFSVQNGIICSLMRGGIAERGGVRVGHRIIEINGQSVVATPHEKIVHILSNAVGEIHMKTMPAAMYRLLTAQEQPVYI
In words: G' assay (10 uM PL peptide), results of TABLE 7 and TABLE 12. The assay is classed as binding. In short, it runs like this:
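Biotinylated PL peptides at 10 uM (vs 20 uM in G^0 assay) bound to GST-PDZ fusions; PDZ protein at 5 ug/ml unless another concentration listed. Bound peptide read as A450 nm, classified 0–5 (0 = A450 0; 5 = A450 >4 repeated).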

Where two headings read alike, the source gives them in different places. Peptide text beside a SMILES is read from it. * marks the point of attachment. Biotin = O=C1N[C@H]2[C@H](CS[C@H]2CCCCC(=O)*)N1

For `CC(C)C[C@H](NC(=O)[C@H](C)NC(=O)[C@@H](NC(=O)[C@@H](NC(=O)[C@H](Cc1c[nH]cn1)NC(=O)[C@H](CC(C)C)NC(=O)CNC(=O)[C@H](CCC(N)=O)NC(=O)CNC(=O)CNC(=O)[C@H](C)NC(=O)[C@H](C)NC(=O)[C@H](CCCNC(=N)N)NC(=O)[C@H](C)NC(=O)[C@H](CO)NC(=O)[C@H](CC(=O)O)NC(=O)[C@H](CC(=O)O)NC(=O)[C@H](Cc1c[nH]c2ccccc12)NC(=O)[C@H](C)NC(=O)CCCC[C@@H]1SC[C@@H]2NC(=O)N[C@@H]21)C(C)C)[C@@H](C)O)C(=O)O` [LPAP] (Biotin-AWDDSARAAGGQGLHVTAL-OH; C-terminus assumed), the Kd in assay [1] (PDZ FLJ 00011, PDZ Domain 1) amounted to 1500 nM. The Classification in assay [2] (PDZ Mint 1, PDZ Domain 2) is given as 1 (A450 nm 0-1).
As for `CC(C)C[C@H](NC(=O)CNC(=O)[C@@H](NC(=O)[C@H](CO)NC(=O)[C@H](CC(N)=O)NC(=O)[C@H](Cc1ccccc1)NC(=O)CNC(=O)[C@H](C)NC(=O)[C@H](C)NC(=O)[C@H](Cc1ccccc1)NC(=O)[C@@H](NC(=O)CCCC[C@@H]1SC[C@@H]2NC(=O)N[C@@H]21)[C@@H](C)O)[C@@H](C)O)C(=O)N1CCC[C@H]1C(=O)N[C@@H](Cc1c[nH]cn1)C(=O)N[C@@H](CO)C(=O)N[C@H](C(=O)N[C@H](C(=O)N[C@@H](CCCNC(=N)N)C(=O)N[C@H](C(=O)O)C(C)C)[C@@H](C)O)[C@@H](C)O` [Neuroligin] (Biotin-TFAAGFNSTGLPHSTTRV-OH; C-terminus assumed), the Kd in assay [1] (PDZ SHANK, PDZ Domain 1) amounted to 300 nM. The Classification in assay [2] (PDZ Mint 1, PDZ Domain 1, 2) is reported as 1 (A450 nm 0-1).
As for `CC(C)C[C@H](NC(=O)[C@H](CC(C)C)NC(=O)[C@@H](NC(=O)[C@H](CC(=O)O)NC(=O)CCCC[C@@H]1SC[C@@H]2NC(=O)N[C@@H]21)[C@@H](C)O)C(=O)N[C@@H](CC(C)C)C(=O)N[C@H](C(=O)N[C@@H](CCC(=O)O)C(=O)N[C@@H](CC(N)=O)C(=O)N[C@@H](CCC(=O)O)C(=O)NCC(=O)N[C@@H](CC(=O)O)C(=O)N[C@@H](CCCCN)C(=O)N[C@H](C(=O)N[C@@H](CCC(=O)O)C(=O)N[C@@H](CCC(=O)O)C(=O)N[C@@H](CCC(N)=O)C(=O)N[C@H](C(=O)N[C@@H](CO)C(=O)N[C@@H](Cc1ccc(O)cc1)C(=O)N[C@H](C(=O)O)C(C)C)C(C)C)[C@@H](C)O)[C@@H](C)O` [5H2B_HUMAN] (Biotin-DTLLLTENEGDKTEEQVSYV-OH; C-terminus assumed), the Kd in assay [1] (PDZ BAI-1, PDZ Domain 3) is 2000 nM. In addition, the Classification in assay [2] (PDZ Mint 1, PDZ Domain 1, 2) is 1 (A450 nm 0-1); in assay [2] (PDZ Mint 1, PDZ Domain 2) it was 1 (A450 nm 0-1).
Turning to `CC(C)C[C@H](NC(=O)[C@H](Cc1c[nH]c2ccccc12)NC(=O)[C@H](Cc1c[nH]cn1)NC(=O)[C@H](CCCNC(=N)N)NC(=O)[C@H](CC(C)C)NC(=O)[C@@H](NC(=O)[C@H](Cc1ccccc1)NC(=O)[C@H](CCC(N)=O)NC(=O)[C@H](CCCNC(=N)N)NC(=O)[C@@H](NC(=O)[C@H](CCC(=O)O)NC(=O)CNC(=O)[C@H](CCCNC(=N)N)NC(=O)[C@H](CC(=O)O)NC(=O)[C@@H](NC(=O)[C@H](CC(C)C)NC(=O)[C@H](CCC(=O)O)NC(=O)[C@H](CCCNC(=N)N)NC(=O)CCCC[C@@H]1SC[C@@H]2NC(=O)N[C@@H]21)C(C)C)C(C)C)[C@@H](C)O)C(=O)N[C@@H](CCCCN)C(=O)N[C@H](C(=O)O)C(C)C` [Dopamine transporter (Na+-dependent)] (Biotin-RELVDRGEVRQFTLRHWLKV-OH; C-terminus assumed), the Kd in assay [1] (PDZ HEMBA 1003117, PDZ Domain 1) stood at 300 nM.
